# Patent US7050620B2, “Method of assaying shape and structural features in cells” (priority 2001, dated 2006)
# Entries after “also recorded” stand apart in the source; their conditions may differ.
# Legend:
# IAR20 PC1 cells [1] = assay: Factor-based classification of cell shape phenotype from interference contours (predicted time in culture); design: species or system rat; conditions: for shift of signature-type (mean predicted time) versus control, in words / mean predicted time (signature-type, factor-based classification): 2 hr exposure; for shift of signature-type (mean predicted time) versus control, in words: taxanes 6–18 μM, baccatin III 9 μM, colchicine 2 μM; for factors used in classification whose values changed significantly: 2 h exposure; for mean predicted time (signature-type, factor-based classification): FIG. 1 experiment, 2 μM colchicine, 18 μM paclitaxel, 10 μM valinomycin, 0.5 μM gramicidin D, 200 μM quinidine, control 283 days; for factor #12 value (slope at which cell rises from substratum, rounding-up): versus control / direction relative to signature-type
# Protocol: (§1) Cell lines and interference preparations. Equations were developed to define changes in the signature-type for two epithelial cell lines that underwent transformation over a prolonged time of in vivo culture. […] IAR20 PC1 was a clonal derivative of a line called IAR20, which was cultured from liver cells of a BD-VI rat. […] Liver cells were grown in William's E medium supplemented with 10% fetal bovine serum, whereas the tracheal cells were grown in Waymouth's medium containing fetal bovine serum plus 0.1 μg/ml insulin and 0.1 μg /ml hydrocortisone. The cells were maintained and subcultured as described elsewhere (1,3). For experiments with insulin supplementation, insulin concentrations were raised to 1 and 10 μg/ml and maintained for two passages before the cells were used.
# Information about shape features was derived from interference images. These were generated by culturing cells on anodized tantalum substrates, and then imaging them in reflected light. Cells were plated on substrates in replicate dishes, left overnight, and then exposed to experimental agents or to the solvent vehicle alone. After incubation with the agents for 2–5 h, samples were recovered, fixed in buffered 3% glutaraldehyde (pH 7.3), and air-dried. Randomly selected cells were imaged in a Zeiss Universal microscope, and the outlines of their three lowermost interference contours were digitized. […] Each experimental treatment was represented by a total of 50 cells.
# (§2) Classification procedures. The classification methods employed a subset of the contour shape variables. Each 50-cell sample was submitted to multiple linear regression analysis for classification alongside a group of cells representing normal and transformed reference samples. The latter were obtained from the lines that underwent transformation as described above. Because the signature-type value was assigned relative to these samples, the solutions were in units of predicted time in culture. After obtaining such a value for each cell in an experiment, the differences in mean predicted times for treated and control cells were calculated. The sum of the squared standard deviations, divided by the number of observations, n, was used to compute the confidence limits of the mean: (s1)^2/n+(s2)^2/n Where s was the standard deviation for each sample. Dividing the difference between the means by the square root of the above expression yields a value that can be related to the degree of confidence, 1-α. […] This value was equivalent to a probability that the two samples differed of P≦0.02.
# (§3) Again, classification of samples from experiments employed multiple linear regression methods, based on factors scores rather than on contour shape variables. Factors were generated by combining into a single database, the contour shape variables from highly malignant epithelial cells and precancerous lines that change progressively, eventually become neoplastic. […] Principal components were extracted and transformed by a pattern of rotation to produce latent factors, which described variances that had thereby been rendered orthogonal (8). Factor scores for each cell represented in the database to be estimated. These factor scores from known IAR20 PC1 or 1000 W cells are used as a reference to classify data from short-term experiments on the respective samples. The factors used in classification were selected by the SAS REG procedure (8). […] Predicted time-in-culture values were obtained by submitting the experimental cells to analysis, as described above for simple variables. The statistical significance of differences among sample means within each experiment was determined by the Duncan multiple range test.
# 1000 W cells = assay: as above; design: species or system rat; conditions: for predicted time (factor-based classification): time zero 612 days; for number of the eight contour shape variables highly correlated with factor #4 that changed significantly: 1000 W cells, FIG. 7—Table 3; for change of signature-type versus control, in words: paclitaxel 2-h or 5 h exposure, insulin 0.1–10 μg/ml
# Protocol: as §1, with “Equations were developed to define changes in the signature-type for two epithelial cell lines that underwent transformation over a prolonged time of in vivo culture.” left out
# Information about shape features was derived from interference images. These were generated by culturing cells on anodized tantalum substrates, and then imaging them in reflected light. Cells were plated on substrates in replicate dishes, left overnight, and then exposed to experimental agents or to the solvent vehicle alone. […] Randomly selected cells were imaged in a Zeiss Universal microscope, and the outlines of their three lowermost interference contours were digitized. […] Each experimental treatment was represented by a total of 50 cells.
# as §2, §3
# IAR20 PC1 cells [2] = assay: Indirect immunofluorescence localization of beta-tubulin (microtubule organization); type: cell-based, rat; conditions: for MT organization / arrangement, in words: exposure 2–5 h; for cells with MT bundles on both sides of the nucleus: taxane alone or IC with 2 μM colchicine
# Protocol: Immunofluorescene localization of β-tubulin. IAR20 PC1 cells were subcultured onto sterile glass cover slips as described above. Replicate samples were exposed to test agents for 2–5 h alongside controls, and then fixed and left in methanol at −70° C. until used for the immunofluorescence procedure. To visualize arrays of MTs, cells were exposed to a mouse monoclonal anti-β tubulin antibody (Nycomed Amersham, Little Chalfont, Buckinghamshire, UK), made up at a 1:300 dilution. We used a 1:100 dilution of P3×63 monoclonal antibody from P3 myeloma (generous gift from J. Lessard) as a non-specific control. The secondary antibody, […] goat anti-mouse immunoglobulin G (US Biochemical Corp., Cleveland), was used at a dilution of 1:2000. Cover slips were processed and then mounted on a slide in a solution of 1,4-diazobicyclo[2.2.2]octane (Sigma) made up to 25 mg/ml in glycerol. The samples were photographed on a Zeiss Axiophot microscope equipped with a 63x Planapo lens. Images were recorded on Kodak Tri-X or T-Max film. All of the drugs, including paclitaxel, cephalomannine, colchicine, and baccatin III, were studied to see if they affected the arrangement of MTs. […] MT arrangement was unaltered after treatment with the above-mentioned ionophores and transport inhibitors.
compound,measurement,setting,value
CC(=O)O[C@H]1C(=O)[C@]2(C)CC[C@H]3OC[C@@]3(OC(C)=O)[C@H]2[C@H](OC(=O)c2ccccc2)[C@]2(O)C[C@H](OC(=O)[C@H](O)[C@@H](NC(=O)c3ccccc3)c3ccccc3)C(C)=C1C2(C)C [7-deoxytaxol],"shift of signature-type (mean predicted time) versus control, in words",IAR20 PC1 cells [1],failed to shift
"CCCCCCCCCCCCCC(=O)O[C@@H]1[C@@H](C)[C@@]2(O)[C@@H](C=C(CO)C[C@]3(O)C(=O)C(C)=C[C@@H]23)[C@@H]2C(C)(C)[C@]12OC(C)=O [PMA, phorbol 12-myristate 13-acetate]",predicted time (factor-based classification),1000 W cells; 30 min after PMA exposure,648 days
same,predicted time (factor-based classification),1000 W cells; 2 h after PMA exposure,663 days
same,predicted time (factor-based classification),1000 W cells; 5 h after PMA exposure,668 days
same,predicted time (factor-based classification),1000 W cells; 10 h after PMA exposure,604 days
same,factor #1 value,1000 W cells; PMA time course,significantly elevated for a brief period after exposure
same,factor #2 value,"1000 W cells; PMA, 10-h time point",significantly reduced below control
same,factor #7 value (knob-shaped projections on the cell edge),"1000 W cells; PMA, one experiment",adopted values like those of transformed cells
same,factor #16 value (size variability in projections at the cell edge),"1000 W cells; PMA, one experiment",adopted values like those of transformed cells
same,factor #4 value,"1000 W cells; PMA, times between 0.5 and 5 h",indistinguishable from those of control samples
same,factor #12 value,"1000 W cells; PMA, times between 0.5 and 5 h",indistinguishable from those of control samples
"CC(=O)O[C@H]1C(=O)[C@@]2(C)[C@H]([C@H](OC(=O)c3ccccc3)[C@]3(O)C[C@H](O)C(C)=C1C3(C)C)[C@]1(OC(C)=O)CO[C@@H]1C[C@@H]2O [baccatin III, Baccatin III]","shift of signature-type (mean predicted time) versus control, in words",IAR20 PC1 cells [1],failed to shift
same,"MT organization / arrangement, in words",IAR20 PC1 cells [2],little noticeable effect
C/C=C(\C)C(=O)N[C@@H](c1ccccc1)[C@@H](O)C(=O)O[C@H]1C[C@@]2(O)[C@@H](OC(=O)c3ccccc3)[C@@H]3[C@]4(OC(C)=O)CO[C@@H]4C[C@H](O)[C@@]3(C)C(=O)[C@H](OC(C)=O)C(=C1C)C2(C)C [cephalomannine],"shift of signature-type (mean predicted time) versus control, in words",IAR20 PC1 cells [1],failed to shift
same,"MT organization / arrangement, in words",IAR20 PC1 cells [2],caused MTs to aggregate in the form of arc-shaped bundles
same,cells with MT bundles on both sides of the nucleus,IAR20 PC1 cells [2],71%
CCN(CC)CCCC(C)Nc1ccnc2cc(Cl)ccc12 (stereo not drawn) [chloroquine],factors used in classification whose values changed significantly,IAR20 PC1 cells [1],did not significantly change any of the factors
same,"mean predicted time (signature-type, factor-based classification)",IAR20 PC1 cells [1],315 days
COc1cc2c(c(OC)c1OC)-c1ccc(OC)c(=O)cc1[C@@H](NC(C)=O)CC2 [colchicine],"mean predicted time (signature-type, factor-based classification)",IAR20 PC1 cells [1],338 days
same,factor #4 value (filopodia / sharp projections at cell edge),IAR20 PC1 cells [1]; versus control,decreased
same,factor #7 value (knob-like structures at the cell edge),IAR20 PC1 cells [1]; versus control,increased
same,"factor #12 value (slope at which cell rises from substratum, rounding-up)",IAR20 PC1 cells [1],mimicked; also recorded: increased
same,mean predicted time,"1000 W cells; 2 μM colchicine for 2 hrs, cells grown in 0.1 μg/ml insulin, untreated 655 days",737 days
same,mean predicted time,"1000 W cells; 2 μM colchicine for 2 hrs, cells grown in 1 μg/ml insulin, untreated 638 days",687 days
same,mean predicted time,"1000 W cells; 2 μM colchicine for 2 hrs, cells grown in 10 μg/ml insulin, untreated 637 days",673 days
same,factor #1 value (massive extensions or invaginations in the two uppermost contours),1000 W cells; colchicine exposure,increased
same,average solution of predicted time,"1000 W cells; second experiment, colchicine-treated sample, control 636 days",689 days
same,"MT organization / arrangement, in words",IAR20 PC1 cells [2],complete depolymerization of MTs
CC(=O)O[C@H]1C(=O)[C@@]2(C)[C@H]([C@H](OC(=O)c3ccccc3)[C@]3(O)C[C@H](OC(=O)[C@H](O)[C@@H](NC(=O)c4ccccc4)c4ccccc4)C(C)=C1C3(C)C)[C@]1(OC(C)=O)CO[C@@H]1C[C@@H]2O [paclitaxel],factors used in classification whose values changed significantly,IAR20 PC1 cells [1],"changes in factors #1, #7, and #12"
same,"shift of signature-type (mean predicted time) versus control, in words",IAR20 PC1 cells [1],failed to promote the signature-type
same,"mean predicted time (signature-type, factor-based classification)",IAR20 PC1 cells [1],304 days
same,factors whose values changed,IAR20 PC1 cells [1]; paclitaxel at a high concentration over a 4-h period,"changes in #1, #7, #8, and #13"
same,"factor #12 value (slope at which cell rises from substratum, rounding-up)",IAR20 PC1 cells [1],counteracted
same,number of the eight contour shape variables highly correlated with factor #4 that changed significantly,1000 W cells,six of their values differed significantly
same,number of the eight contour shape variables highly correlated with factor #4 that changed significantly,1000 W cells; listed as Paclitaxel,six out of the eight
same,"change of signature-type versus control, in words",1000 W cells,failed to elicit any change
same,"MT organization / arrangement, in words",IAR20 PC1 cells [2],large bundles of MTs
same,cells with MT bundles on both sides of the nucleus,IAR20 PC1 cells [2],56%
CC(C)[C@@H]1NC(=O)[C@H](C)OC(=O)[C@@H](C(C)C)NC(=O)[C@@H](C(C)C)OC(=O)[C@H](C(C)C)NC(=O)[C@H](C)OC(=O)[C@@H](C(C)C)NC(=O)[C@@H](C(C)C)OC(=O)[C@H](C(C)C)NC(=O)[C@H](C)OC(=O)[C@@H](C(C)C)NC(=O)[C@@H](C(C)C)OC1=O [valinomycin],"mean predicted time (signature-type, factor-based classification)",IAR20 PC1 cells [1],336 days
same,factor #4 value (filopodia / sharp projections at cell edge),IAR20 PC1 cells [1]; versus control,change in factor #4
same,factor #8 value (sharp features in the second contour),"IAR20 PC1 cells [1]; versus control, monensin 24 μM",affected
gramicidin D,"mean predicted time (signature-type, factor-based classification)",IAR20 PC1 cells [1],387 days
same,factor #4 value (filopodia / sharp projections at cell edge),IAR20 PC1 cells [1]; versus control,change in factor #4
same,factor #7 value (knob-like structures at the cell edge),IAR20 PC1 cells [1]; versus control,increase
insulin,mean predicted time,"1000 W cells; grown in 0.1 μg/ml insulin, no colchicine",655 days
same,mean predicted time,"1000 W cells; grown in 1 μg/ml insulin, no colchicine",638 days
same,mean predicted time,"1000 W cells; grown in 10 μg/ml insulin, no colchicine",637 days
same,"change of signature-type versus control, in words",1000 W cells,no significant differences
